The values below come from patent publication US10654815B2, “Urea compound and preparation method and application thereof” (SHENZHEN CHIPSCREEN BIOSCIENCES CO., LTD., priority 2016, dated 2020).

Test [1] deals with T1, PD-1/PD-L1 binding (UniProt Q9NZQ7).
T1 construct: fused on or other part: human IgG Fc (hFc tag) fused to PD-L1
Description: In-vitro PD-1/PD-L1 binding inhibition (HTRF). Also noted: species or system human. To be noted: His-PD-1 100 nM, PD-L1-Fc 2 nM final, read-out: IC50 on inhibiting PD-1/PD-L1 binding in-vitro. The text has this:
Main Principle of the Experiment (HTRF)
Homogeneous Time-Resolved Fluorescence (HTRF): The PD-1 protein carried an His tag and the Fc fusion protein of its ligand PD-L1 carried an hFc tag. An anti-hFc antibody labeled with a chelating marker of Eu element and an anti-His antibody labeled with XL66 were respectively combined with two corresponding tags. After laser excitation (320 nm), energy was transferred from the donor Eu to the acceptor XL665, so that the XL665 emitted light (665 nm). […] The basic detection principle was as follows (see FIG. 3):
The His-tagged human recombinant PD-1 protein (Cat#: 80448-R08H-100) and human recombinant PD-L1-Fc fusion protein (Cat#: 90251-CO2H-100) were purchased from Sino Biological Inc., and the anti-hFc-Eu3^+ and anti-His-XL665 antibody were purchased from Cisbio. Other related reagents such as dilution buffer, detection buffer were all purchased from Cisbio. The fluorescence detection instrument Tecan (Spark 10M) was purchased from Tecan, Switzerland.
The experimental process was carried out in accordance with the procedure required by the instruction manual for the test reagent […]. The process was as follows:
(1) Preparation of the experiment: The test compound was diluted to a different concentration gradient with a dilution buffer (the maximum final concentration was 10 μM in 20 μL final reaction system), the His-PD-1 protein was diluted to 800 nM (the final concentration was 100 nM in 20 μL final reaction system), and the PD-L1-Fc fusion protein was diluted to 16 nM (the final concentration was 2 nM). The anti-His-XL665 antibody and the anti-hFc-Eu^3+ antibody were diluted 20-fold and 100-fold, respectively, with the test diluent according to the reagent requirements.
(2) 5 μL of the test compound, 2.5 μL of PD-L1 protein and 2.5 μL of PD-1 protein solution were evenly mixed, and then reacted at room temperature for 15 min. Subsequently, 5 μL of anti-His-XL665 antibody and 5 μL of anti-hFc-Eu^3+ antibody were added to the system, and the incubation was continued for 3 hours followed by detection.
(3) At the same time of detection of the reaction, control groups were set, including a 0-inhibited positive control to which no test compound was added, and a negative control to which no PD-1 protein was added. All tests were run in duplicate.
(4) The fluorescence signal of each well was detected by a fluorescence detector Tecan (Spark 10M) with an excitation wavelength of 320 nm and detected emission wavelengths of 620 nm and 665 nm, respectively. The intensity of PD-1/PD-L1 binding to each other referred to the fluorescence signal ratio Em665/Em620.
(5) Formula for calculating the binding inhibition rate of test compounds: inhibition rate (%)=[1−(ratio of fluorescence signals of detection holes−negative control)/(ratio of fluorescence signals of 0-inhibited positive control−negative control)×100%. After calculating the binding inhibition rate of the test compounds with different concentration gradients, the 50% inhibitory concentration (IC50) was further calculated.
In general terms: In TR-FRET formats the signal depends on donor and acceptor labels being close together.

Test [2] relates to T cell leukemia cell line (Jurkat cell). Put plainly: Cytotoxic activity, MTS assay in T cell line. In kind it is cell-based. To be noted: Homo sapiens, Jurkat cells, compound 2 μM, 72 h, relative to solvent control (DMSO). The text has this:
In order to rule out the biological function changes of T cell caused by cytotoxic effects of the compounds themselves, MTS assay was used as a routine cytotoxicity detection method. The basic principle was that the dehydrogenase in the living cell mitochondria was capable of metabolizing and reducing the new type yellow […] compound MTS to formazan. The amount of formazan product measured at 490 nm absorbance (OD) was directly proportional to the number of viable cells in the culture, and thus whether the test compound itself had the ability of inhibiting cell growth or killing cells can be judged basing on the OD value.
In this experiment, the T cell leukemia cell line (Jurkat cell) was evaluated for its cell growth activity according to the MTS assay.
The MTS was carried out in a 96-well plate according to a routine experimental procedure.
Cell lines were inoculated into a 96-well plate at an appropriate concentration (approximately 20,000 cells/well), test compounds (final concentration 2 μM) were added, and at the same time solvent control (DMSO) and negative control wells were set, and the well was set in triplicate. The cells were further cultured for 72 h followed by detection.
After the culture, 20 μL of the a pre-prepared mixture of MTS and PMS (mixed in a ratio of 20:1) was added directly to the culture well, and incubated in a 37° C. incubator for 2 h, and then detection was conducted using a microplate reader (490 nm).
The background value of the negative control was subtracted, and the relative cell activity (%) of the test compound on cell growth=(OD value of the test well/OD value of the solvent control well)×100%.
(In general: Tetrazolium assays rely on reduction of a dye to a coloured formazan, in cell work by metabolically active cells.)

Test [3] concerns PD-1/PD-L1 interaction in human peripheral mononuclear cells (PBMC). Put plainly: PD-1 signal inhibition at cellular level: IL-2 secretion of SEB-stimulated PBMC (ELISA). In kind it is cell-based. To be noted: SEB 200 ng/mL-stimulated volunteer PBMC, compound 2 μM, 96 h; compared to anti-human PD-1 antibody (5 μg/mL). In general terms: ELISA stands for enzyme-linked immunosorbent assay.

pIC50: −log10 of the molar value.

With `Cc1c(COc2ccc(CNCCNC(=O)N[C@@H](COC(C)(C)C)C(=O)OC(C)(C)C)c(OCc3cccc(C#N)c3)c2)cccc1-c1ccccc1` [Compound I-3, 1-((2-(2-(3-cyanophenyl)methoxy-4-(2-methyl-(1,1′-diphenyl)-3-yl-methoxy))benzylamino)-2-ethyl)-3-(2-tert-butyl-O-tert-butyl-L-serinate-2-yl)urea], the pIC50 in test [1] was 5.51. The activity at 2 µM in test [2] is 99.7%.
For `Cc1cc(CNCCOCCNC(=O)NCCO)c(OCc2cncc(C#N)c2)cc1OCc1cccc(-c2ccc3c(c2)OCCO3)c1C#N` [Compound I-7], the “Activity of promoting IL-2 (%)” value in test [3] came out at 58.1%. For the same molecule, the pIC50 in test [1] was 7.36. Moreover, in test [2], the activity at 2 µM worked out at 94.5%.
As for `Cc1cc(CNCCNC(=O)NC(CO)(CO)CO)c(OCc2cncc(C#N)c2)cc1OCc1cccc(-c2ccc3c(c2)OCCO3)c1C#N` [Compound I-5], in test [3], the “Activity of promoting IL-2 (%)” value was 53%. In addition, the pIC50 in test [1] is 7.44. In test [2], the activity at 2 µM was 94.6%.
Regarding `Cc1cc(CNCCNC(=O)NCCN2CCOCC2)c(OCc2cncc(C#N)c2)cc1OCc1cccc(-c2ccc3c(c2)OCCO3)c1C#N` [Compound I-8], in test [1], the pIC50 is 7.21. For the same molecule, the activity at 2 µM in test [2] was found to be 95.1%.
In the case of `Cc1c(COc2ccc(CNCCNC(=O)NCCO)c(OCc3cccc(C#N)c3)c2)cccc1-c1ccccc1` [Compound I-2, 1-((2-(2-(3-cyanophenyl)methoxy-4-(2-methyl-(1,1′-diphenyl)-3-yl-methoxy))benzylamino)-2-ethyl)-3-(2-hydroxyethyl)urea], in test [1], the pIC50 was 6.24. The activity at 2 µM in test [2] was found to be 100%.
On to `Cc1cc(CNCCOCCNC(=O)NCCS(C)(=O)=O)c(OCc2cncc(C#N)c2)cc1OCc1cccc(-c2ccc3c(c2)OCCO3)c1C#N` [Compound I-9], for which, in test [1], the pIC50 was 7.55. Also, the activity at 2 µM in test [2] came to 99.6%.
With `Cc1cc(CNCCNC(=O)NCCO)c(OCc2cncc(C#N)c2)cc1OCc1cccc(-c2ccc3c(c2)OCCO3)c1C#N` [Compound I-4], the pIC50 in test [1] is 7.43. Further, the activity at 2 µM in test [2] is 93.2%.
On to `Cc1cc(CNCCNC(=O)N[C@@H](CO)C(=O)O)c(OCc2cncc(C#N)c2)cc1OCc1cccc(-c2ccc3c(c2)OCCO3)c1C#N` [Compound I-13], for which the pIC50 in test [1] is 7.80. Further, the activity at 2 µM in test [2] turned out to be 91.1%.
Regarding `Cc1cc(CNCCNC(=O)NCCN(C)C)c(OCc2cncc(C#N)c2)cc1OCc1cccc(-c2ccc3c(c2)OCCO3)c1C#N` [Compound I-11], the “Activity of promoting IL-2 (%)” value in test [3] is recorded as 51.7%. Besides, in test [1], the pIC50 was 7.12. For the same molecule, the activity at 2 µM in test [2] stood at 95.6%.
In the case of `C=CC(=O)NCCNC(=O)NCCNCc1cc(C)c(OCc2cccc(-c3ccc4c(c3)OCCO4)c2C#N)cc1OCc1cncc(C#N)c1` [Compound I-14], the pIC50 in test [1] is 6.71. Moreover, the activity at 2 µM in test [2] came to 102%.
As to `Cc1c(COc2ccc(CNCCNC(=O)NCCN3CCOCC3)c(OCc3cccc(C#N)c3)c2)cccc1-c1ccccc1` [Compound I-1, 1-((2-(2-(3-cyanophenyl)methoxy-4-(2-methyl-(1,1′-diphenyl)-3-yl-methoxy))benzylamino)-2-ethyl)-3-(2-(N-morpholine)ethyl)urea], the pIC50 in test [1] was 5.77. Also, in test [2], the activity at 2 µM was determined as 102%.
Regarding `Cc1cc(CNCCOCCNC(=O)NCCN(C)C)c(OCc2cncc(C#N)c2)cc1OCc1cccc(-c2ccc3c(c2)OCCO3)c1C#N` [Compound I-10], in test [1], the pIC50 is 7.13. Besides, the activity at 2 µM in test [2] was determined as 97.1%.
In the case of `Cc1cc(CNCCNC(=O)NCCS(C)(=O)=O)c(OCc2cncc(C#N)c2)cc1OCc1cccc(-c2ccc3c(c2)OCCO3)c1C#N` [Compound I-12], the pIC50 in test [1] is 7.31. Besides, the activity at 2 µM in test [2] amounted to 91.6%.
Consider `C=C(NC(=O)NCCNCc1cc(C)c(OCc2cccc(-c3ccc4c(c3)OCCO4)c2C#N)cc1OCc1cncc(C#N)c1)C(=O)O` [Compound I-6], for which the “Activity of promoting IL-2 (%)” value in test [3] was found to be 56.3%. Further, the pIC50 in test [1] was 7.15. In addition, the activity at 2 µM in test [2] stood at 92.1%.
